Test results published in paper PMC11513842, “Development of an orally bioavailable CDK12/13 degrader and induction of synthetic lethality with AKT pathway inhibition” (Cell Reports Medicine, 2024).

Legend:
MCF10A = assay: Cell viability assay (CellTiter-Glo, 5 days); format: cell-based; conditions: Homo sapiens, MCF-10A, 120 h, 5 days of treatment, Figure 1F
Description: (§1) Cells were seeded in 96-well plates and incubated at 37°C with 5% CO2 overnight. A series of compound dilutions were added into the cells. After 5 days incubation, cell proliferation was tested using the CellTiter-Glo assay (Promega) according to the manufacturer’s protocol. Luminescence was measured using the Infinite M1000 Pro plate reader (Tecan). Data analysis was conducted using GraphPad Prism software.

PrEC = assay: Cell viability assay (CellTiter-Glo, 5 days); format: cell-based; conditions: Homo sapiens, 120 h, 5 days of treatment, Figure 1F
Description: as §1

22RV1 = assay: Cell viability assay (CellTiter-Glo, 5 days); format: cell-based; conditions: Homo sapiens
Description: as §1

CWR22RV1 = assay: Cell viability assay (CellTiter-Glo, 5 days); format: cell-based; conditions: Homo sapiens, 120 h; CWR22RV1, 5 days of treatment, Figure 1F
Description: as §1

MFM223 = assay: Cell viability assay (CellTiter-Glo, 5 days); format: cell-based; conditions: Homo sapiens, MFM-223, 120 h; MFM223, 5 days of treatment, Figure 1F
Description: as §1

MCF12A = assay: Cell viability assay (CellTiter-Glo, 5 days); format: cell-based; conditions: Homo sapiens, MCF-12A, 120 h, 5 days of treatment, Figure 1F
Description: as §1

MCF7 = assay: Cell viability assay (CellTiter-Glo, 5 days); format: cell-based; conditions: Homo sapiens, 120 h; MCF7, 5 days of treatment, Figure 1F
Description: as §1

DU145 = assay: Cell viability assay (CellTiter-Glo, 5 days); format: cell-based; conditions: Homo sapiens, DU-145, 120 h; DU145, 5 days of treatment, Figure 1F
Description: as §1

WPMY-1 = assay: Cell viability assay (CellTiter-Glo, 5 days); format: cell-based; conditions: Homo sapiens, 120 h; WPMY-1, 5 days of treatment, Figure 1F
Description: as §1

MDA-MB-468 = assay: Cell viability assay (CellTiter-Glo, 5 days); format: cell-based; conditions: Homo sapiens, 120 h; MDA-MB-468, 5 days of treatment, Figure 1F
Description: as §1

PC3 = assay: Cell viability assay (CellTiter-Glo, 5 days); format: cell-based; conditions: Homo sapiens, PC-3, 120 h; PC3, 5 days of treatment, Figure 1F
Description: as §1

LAPC4 = assay: Cell viability assay (CellTiter-Glo, 5 days); format: cell-based; conditions: Homo sapiens
Description: as §1

BPH-1 = assay: Cell viability assay (CellTiter-Glo, 5 days); format: cell-based; conditions: Homo sapiens; BPH-1, dose-response curve, Figure 3A
Description: as §1

RWPE1 = assay: Cell viability assay (CellTiter-Glo, 5 days); format: cell-based; conditions: Homo sapiens, RWPE-1; RWPE, dose-response curve, Figure 3A
Description: as §1

SK-BR-3 = assay: Cell viability assay (CellTiter-Glo, 5 days); format: cell-based; conditions: Homo sapiens, 120 h; SK-BR-3, 5 days of treatment, Figure 1F
Description: as §1

PNT2 = assay: Cell viability assay (CellTiter-Glo, 5 days); format: cell-based; conditions: Homo sapiens, 120 h; PNT2, 5 days of treatment, Figure 1F
Description: as §1

VCaP cells = assay: Comet assay; format: cell-based, human; conditions: 100 nM, 12 h
Description: VCaP cells were seeded in 6-well plates one day prior to treatment. […] After 12 h incubation, the cells were trypsinized and resuspended at a concentration of 1 × 10^5 cells/mL in ice-cold PBS. The OxiSelect Comet Assay Kit (Cell Biolabs, STA-351) was used to assess DNA damage. Following the manufacturer’s protocol, cells were combined with pre-heated comet agarose at a 1:10 ratio, mixed thoroughly, and then transferred onto slides. The slides were incubated horizontally in the dark at 4°C for 20 min. Afterward, they were immersed in pre-chilled lysis buffer for 40 min at 4°C in the dark, followed by a 30-min incubation in pre-chilled alkaline solution at 4°C in the dark. Electrophoresis was then performed using alkaline solution at 30 V for 20 min. After electrophoresis, the slides were rinsed three times with pre-chilled deionized water, following with 70% ethanol for 5 min and completely dried at 37°C for 30 min. Subsequently, 100 μL of diluted Vista Green DNA dye was applied to each well. After 15 min incubation at room temperature, the comets were observed using a fluorescence microscope and quantified using ImageJ. The quantification figure was generated using GraphPad Prism software.

WA74 PDX = assay: WA74 patient-derived xenograft efficacy; format: in vivo, mouse
Description: Six-week-old male CB17SCID mice obtained from Charles River (Stock # 236), were used to establish subcutaneous tumors on both dorsal flanks. Tumor dimensions were measured biweekly using digital calipers, applying the formula (π/6) (L × W^2), where L and W represent tumor length and width, respectively. At the study conclusion, mice were euthanized, and tumors were excised and weighed. The University of Michigan Institutional Animal Care and Use Committee (IACUC) approved all in vivo studies.
WA74 PDX model was developed at the University of Michigan during collection of a rapid autopsy case as part of the Michigan Legacy Tissue Program (MLTP). PC310 PDX model was obtained from Erasmus Medical Center, Rotterdam, the Netherlands. Both PDX lines were propagated in male CB17SCID mice by surgically implanting 2 mm^3 tumor fragments, coated with 100% Matrigel, into both flanks of mice. When tumors reached approximately 200 mm^3, mice were randomized into treatment groups. These groups received either 30 mg/kg YJ9069 via intravenous injection or 100 mg/kg YJ1206 by oral gavage, both administered three times per week, with or without 15 mg/kg uprosertib by oral gavage five days per week for 3–4 weeks. In accordance with IACUC guidelines, the maximum tumor size was limited to 2.0 cm in any dimension, and mice were euthanized if xenografts reached this endpoint.

## O=C1CCC(N2C(=O)c3cccc(OCC(=O)N4CCN(c5ccc(N(C(=O)NCc6ccccc6)C6CCC(Nc7ncc8ccccc8n7)CC6)cc5)CC4)c3C2=O)C(=O)N1 (centres unmarked) [YJ9069]
MCF10A
  IC50: > 10 µM
PrEC
  IC50: > 10 µM
22RV1; 120 h, 22RV1, 5 days of treatment, Figure 1F
  IC50: 0.0903 µM
22RV1; 22RV1, dose-response curve, Figure 3A
  IC50: 0.144 µM
CWR22RV1
  IC50: 0.428 µM
MFM223
  IC50: 0.0442 µM
MCF12A
  IC50: > 10 µM
MCF7
  IC50: 1.74 µM
DU145
  IC50: > 10 µM
WPMY-1
  IC50: > 10 µM
MDA-MB-468
  IC50: 0.678 µM
PC3
  IC50: 2.39 µM
LAPC4; 120 h, LAPC4, 5 days of treatment, Figure 1F
  IC50: 0.152 µM
LAPC4; LAPC4, dose-response curve, Figure 3A
  IC50: 0.109 µM
BPH-1
  IC50: > 10 µM
RWPE1
  IC50: > 10 µM
SK-BR-3
  IC50: 1.28 µM
PNT2
  IC50: > 10 µM
VCaP cells
  DNA damage (tail moment): significant increase in the tail moment
WA74 PDX; 30 mg/kg, 3 times/week, 21 days
  anti-tumor effect (regression): regression in all animals
WA74 PDX; i.v. 30 mg/kg 2x/week
  partial response (PR), waterfall plot (RECIST): 43%
  stable disease (SD), waterfall plot (RECIST): 43%
WA74 PDX; i.v. 30 mg/kg 3x/week
  partial response (PR), waterfall plot (RECIST): 100%
